Paper PMC6698794, “Catalytic Knockdown of miR-21 by Artificial Ribonuclease: Biological Performance in Tumor Model” (Frontiers in Pharmacology, 2019)

Assays:
B16 cells = assay: In vitro invasiveness assay (xCELLigence, Matrigel-coated CIM-Plates); format: cell-based, mouse; conditions: 1 µM with Lipofectamine
Procedure: B16 cells were pre-seeded (2 × 10^5 per well of 24-well plates) in DMEM/10% FBS a day before transfection. Medium was replaced with serum-free DMEM, prior to incubation for 4 h with h-ODN, 2′-OMe, Inh (hsa-miR-21 5 p inhibitor, Ambion, USA), miR-21-miRNase, or luc-POC, each (0.1 or 1 µM) pre-complexed with Lipofectamine (Thermo Fisher Scientific, USA) in Opti-MEM medium (Thermo Fisher Scientific, USA) according to manufacturer’s instructions, then cells were cultivated in fresh culture standard medium for 24–72 h.
Real-time cell analysis (xCELLigence, ACEABiosciences, USA) used CIM-Plates held at 37°C under an atmosphere of 5% CO2. Top chamber wells were coated with Matrigel (20 µl per well, diluted 1:40 with cold serum-free DMEM) and allowed to polymerize (4 h at 37°C under 5% CO2) prior to cell seeding. Bottom chamber wells were filled with DMEM/10% FBS (160 µl each), prior to assembly of the chambers, when serum-free DMEM was added to the top wells (30 µl each) and equilibrated (1 h at 37°C under 5% CO2). At 4 h after transfection, B16 cells (4 × 10^4) were seeded into each top chamber well in serum-free DMEM and pre-incubated for 30 min at room temperature before monitoring (xCELLigence set to collect impedance data, reported as cell index at least once every 30 min).
Figure 2 Biological effect of the miR-21-specific miRNase. (A) Apoptotic profile of B16 melanoma cells after transfection with miR-21-miRNase and control luc-POC. Cytofluorimetric analysis of cells after staining with Annexin V-FITC/PI 48 h after transfection with miRNase or luc-POC (1 µM) in complex with Lipofectamine2000. Q1—population of living cells; Q2—Annexin V-FITC+/PI-, early apoptosis; Q3—Annexin V-FITC+/PI+, late apoptosis; Q4—Annexin V-FITC-/PI+, necrosis. (B) Average percentage of apoptotic (early and late apoptosis) and necrotic B16 cell population. Data represent mean ± s.e. of four independent experiments.(C, D) Invasion activity of B16 cells after incubation with Lipofectamine (LF) alone or treated with either hairpin antisense oligonucleotide (h-ODN), hairpin 2′-OMe oligonucleotide (2′-OMe), commercial miR-21 inhibitor (Inh), miR-21-miRNase, and control conjugate (luc-POC) in the concentration of 1 µM. Migration of cells was recorded in real time using the xCELLigence cell analysis system. Control—B16 cells without treatment. Data represent mean ± s.d. of four independent experiments.

RLS40 lymphosarcoma = assay: Hepatic index of mice implanted with treated RLS40 cells; format: in vivo; conditions: cells treated with 1 µM; (liver weight/mouse weight) × 100%; 5.0% for healthy CBA mice; Mean ± SE
Procedure: RLS40 ascites were taken from CBA mice intraperitoneally injected with tumor cells (2 × 10^6 in 0.2 ml buffered saline) into their abdominal cavities. RLS40 cells, isolated from ascites fluid by filtration through LSM were divided into seven portions: 1) untreated cells; 2) the cells incubated with Lipofectamine; the cells transfected with 1 µM of 3) h-ODN, 4) 2′-OMe, 5) Inh, 6) miR-21-miRNase, or 7) luc-POC each. After 4 h of transfection, cell suspensions (0.1 ml, 2 × 10^6 cells) were intramuscularly inoculated into the right lower limb of CBA mice for solid tumor development. As soon as tumors began to be palpable, the tumor volumes were measured every 2–3 days using calipers. Tumor volumes were calculated as V = (π/6 × length × width × height). Hepatic index was estimated as (liver weight/mouse weight) × 100% and as 5.0% for healthy CBA mice. Tumor doubling time (DT) was estimated as DT = (t − t0) × ln 2/(ln V − ln V0), where (t − t0) indicates the length of time between two measurements of tumor size and V0 and V denote the tumor volume at two points of the measurement ([Ozono et al., 2004]).
Supplementary Table 2. Hepatic indexes of mice implanted with RLS40 treated with antisense
oligonucleotides, control luc-POC and miR-21-miRNase
Type of treatment Hepatic index, %* p-value (vs control)
* – Mean ± SE; s.i. – statistically insignificant
Hepatic index was estimated as (liver weight/mouse weight) × 100% and as 5.0% for healthy CBA
The MDR status of RLS40 may add to the burden on the liver, when this type of tumor
metastasizes into the liver (Sen’kova et al., 2012). Ex vivo treatment of RLS40 cells by
oligonucleotides and miRNase avoids the toxic effect of antisense oligonucleotides, their conjugates
and transfection reagents directly on the tumor-bearing animal. This may allow consideration of
whether the decrease of migration activity of tumor cells translated into reduced metastatic burden of
RLS40 on the liver. Treatment of the cells seeding the tumor may not reduce migration and […]

## h-ODN: miR-21-targeted hairpin deoxyribooligonucleotide AGTCTGATAAGCTACAAGTCAGCGAAAGCTGACTTG, unconjugated with the peptide (DNA, backbone and methylation of C not given here; hairpin at 3' end, unconjugated)
B16 cells; compared with Lipofectamine alone
  Migration rate of transfected B16 cells (in words): almost the same rate as cells incubated with Lipofectamine
RLS40 lymphosarcoma
  Hepatic index: 5.23±0.17%

## acetyl-[(LeuArg)2Gly]2-aminohexyl-AGTCTGATAAGCTACAAGTCAGCGAAAGCTGACTTG [miR-21-miRNase, peptide acetyl-[(LeuArg)2Gly]2 conjugated through aminohexyl linker to 5′-end of miR-21-targeted hairpin oligodeoxyribonucleotide]
B16 cells; time point 40 h
  Inhibition of invasion of B16 cells relative to luc-POC: about 70%
B16 cells; time point 40 h, four independent experiments
  Inhibition of invasion of B16 cells relative to control: about 70%
RLS40 lymphosarcoma
  Hepatic index: 5.1±0.16%
